Experimental data: patent publication US20240246941A1, “SUBSTITUTED 4-(3-AMINOPROP-1-YL)AMINOQUINOLINE ANALOGS AS MODULATORS OF MELANOMA-ASSOCIATED ANTIGEN 11 UBIQUITIN LIGASE” (ST. JUDE CHILDREN'S RESEARCH HOSPITAL, INC., priority 2020, published 2024)
pIC50: −log10 of the molar value. Read-outs that look alike come from different tables or passages of the source.

Target: interaction between GST-MAGEA11 MHD and FAM-PCF11_4 peptide (MAGE-A11:PCF11) (Homo sapiens (Human), UniProt P43364)
Assay: TR-FRET dose response competition assay for disruption of MAGE-A11:PCF11 binding
Summary of the method: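 Competition TR-FRET at room temperature in 50 mM Tris pH 7.5, 20 mM MgCl2, 0.1 mg/ml BSA, 1 mM DTT: final 5 nM GST-MAGEA11 MHD, 5 nM Tb-anti-GST, 200 nM FAM-PCF11_4, 90 min. Ratio 520/490 nm converted to % inhibition; IC50 from sigmoidal fit.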

[1] = Table 8, representative compounds, read-out: TR-FRET IC50
[2] = Dose response TR-FRET screening of nine scaffold groups against MAGE-A11:PCF11, read-out: consensus IC50
[3] = Table 5, dose response TR-FRET screening of 59 quinoline compounds against MAGE-A11:PCF11, read-out: TR-FRET IC50

Sequence of interaction between GST-MAGEA11 MHD and FAM-PCF11_4 peptide (MAGE-A11:PCF11) (P43364 218-429): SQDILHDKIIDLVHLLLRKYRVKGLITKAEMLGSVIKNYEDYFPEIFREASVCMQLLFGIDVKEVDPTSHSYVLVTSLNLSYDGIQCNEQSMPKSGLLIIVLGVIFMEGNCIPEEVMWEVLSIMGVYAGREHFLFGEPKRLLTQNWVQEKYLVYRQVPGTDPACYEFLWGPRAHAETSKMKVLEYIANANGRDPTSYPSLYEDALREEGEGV

| Compound | pIC50 [1] | pIC50 [2] | also measured |
| --- | --- | --- | --- |
| COc1ccc(F)cc1CNCCCNc1ccnc2cc(Oc3ccc(C(C)(C)C)cc3)ccc12 [SJ000311237] | 5.20 |  |  |
| COc1cccc(CNCCCNc2ccnc3cc(-c4ccc(F)cc4)ccc23)c1O [SJ000311239-1] |  | 4.48 |  |
| COc1cccc(CNCCCNc2ccnc3cc(-c4ccc(F)cc4)ccc23)c1O [SJ000311239] | 4.48 |  |  |
| Fc1ccc(-c2ccc3c(NCCCNCc4cccc5c4OCO5)ccnc3c2)cc1 [SJ000311240-1] |  | 4.60 |  |
| Fc1ccc(-c2ccc3c(NCCCNCc4cccc5c4OCO5)ccnc3c2)cc1 [SJ000311240] | 4.60 |  |  |
| COc1ccc(F)cc1CNCCCNc1ccnc2cc(-c3ccc(F)cc3)ccc12 [SJ000311241-1] |  | 4.41 |  |
| COc1ccc(F)cc1CNCCCNc1ccnc2cc(-c3ccc(F)cc3)ccc12 [SJ000311241] | 4.41 |  |  |
| COc1cccc(CNCCCNc2ccnc3cc(Cc4ccc(F)cc4)ccc23)c1O [SJ000311243-1] |  | 4.36 |  |
| COc1cccc(CNCCCNc2ccnc3cc(Cc4ccc(F)cc4)ccc23)c1O [SJ000311243] | 4.36 |  |  |
| Fc1ccc(Cc2ccc3c(NCCCNCc4cccc5c4OCO5)ccnc3c2)cc1 [SJ000311244-1] |  | 4.37 |  |
| Fc1ccc(Cc2ccc3c(NCCCNCc4cccc5c4OCO5)ccnc3c2)cc1 [SJ000311244] | 4.37 |  |  |
| COc1ccc(F)cc1CNCCCNc1ccnc2cc(Cc3ccc(F)cc3)ccc12 [SJ000311245-1] |  | 4.46 |  |
| COc1ccc(F)cc1CNCCCNc1ccnc2cc(Cc3ccc(F)cc3)ccc12 [SJ000311245] | 4.46 |  |  |
| COc1cccc(CNCCCNc2ccnc3cc(CCC(C)C)ccc23)c1O [SJ000311247-1] |  | 4.16 |  |
| COc1cccc(CNCCCNc2ccnc3cc(CCC(C)C)ccc23)c1O [SJ000311247] | 4.16 |  |  |
| CC(C)CCc1ccc2c(NCCCNCc3cccc4c3OCO4)ccnc2c1 [SJ000311248-1] |  | 4.56 |  |
| CC(C)CCc1ccc2c(NCCCNCc3cccc4c3OCO4)ccnc2c1 [SJ000311248] | 4.56 |  |  |
| COc1ccc(F)cc1CNCCCNc1ccnc2cc(CCC(C)C)ccc12 [SJ000311249-1] |  | 4.16 |  |
| COc1ccc(F)cc1CNCCCNc1ccnc2cc(CCC(C)C)ccc12 [SJ000311249] | 4.16 |  |  |
| c1coc(CNCCCNc2ccnc3cc(CC4CCCCC4)ccc23)c1 [SJ000311250-1] |  |  | pIC50 [3]: 4.26 |

| Compound | pIC50 [1] | pIC50 [2] | also measured |
| --- | --- | --- | --- |
| COc1cccc(CNCCCNc2ccnc3cc(CC4CCCCC4)ccc23)c1O [SJ000311251-1] |  | 4.53 |  |
| COc1cccc(CNCCCNc2ccnc3cc(CC4CCCCC4)ccc23)c1O [SJ000311251] | 4.53 |  |  |
| c1cc(CNCCCNc2ccnc3cc(CC4CCCCC4)ccc23)c2c(c1)OCO2 [SJ000311252-1] |  | 4.79 |  |
| c1cc(CNCCCNc2ccnc3cc(CC4CCCC4)ccc23)c2c(c1)OCO2 [SJ000311252] | 4.80 |  |  |
| COc1ccc(F)cc1CNCCCNc1ccnc2cc(CC3CCCCC3)ccc12 [SJ000311253-1] |  | 4.58 |  |
| COc1ccc(F)cc1CNCCCNc1ccnc2cc(CC3CCCCC3)ccc12 [SJ000311253] | 4.58 |  |  |
| COc1cccc(CNCCCNc2ccnc3cc(CCc4ccccc4)ccc23)c1O [SJ000311255-1] |  | 4.58 |  |
| COc1cccc(CNCCCNc2ccnc3cc(CCc4ccccc4)ccc23)c1O [SJ000311255] | 4.58 |  |  |
| COc1ccc(F)cc1CNCCCNc1ccnc2cc(CCc3ccccc3)ccc12 [SJ000311256-1] |  | 4.43 |  |
| COC1CCCC(F)CC1CNCCCNc1ccnc2cc(CCc3ccccc3)ccc12 (stereo not drawn) [SJ000311256] | 4.43 |  |  |
| c1ccc(CCc2ccc3c(NCCCNCc4cccc5c4OCO5)ccnc3c2)cc1 [SJ000311257-1] |  | 4.21 |  |
| c1ccc(CCc2ccc3c(NCCCNCc4cccc5c4OCO5)ccnc3c2)cc1 [SJ000311257] | 4.21 |  |  |
| COc1cccc(CNCCCNc2ccnc3cc(CC(C)C)ccc23)c1O [SJ000311259-1] |  | 4.16 |  |
| COc1cccc(CNCCC/N=C2/C=CNC3=CC=C(CC(C)C)C=CC32)c1O (stereo not drawn) [SJ000311259] | 4.16 |  |  |
| CC(C)Cc1ccc2c(NCCCNCc3cccc4c3OCO4)ccnc2c1 [SJ000311260-1] |  | 4.16 |  |
| CC(C)Cc1ccc2c(NCCCNCc3cccc4c3OCO4)ccnc2c1 [SJ000311260] | 4.16 |  |  |
| COc1ccc(F)cc1CNCCCNc1ccnc2cc(CC(C)C)ccc12 [SJ000311261-1] |  | 4.16 |  |
| COc1ccc(F)cc1CNCCCNc1ccnc2cc(CC(C)C)ccc12 [SJ000311261] | 4.16 |  |  |
| c1coc(CNCCCNc2ccnc3cc(C4CCCCC4)ccc23)c1 [SJ000311262-1] |  |  | pIC50 [3]: < 4.15 |
